Laboratory results from patent publication US6130053A, “Method for selecting compounds for inhibition of neoplastic lesions” (priority 1999, dated 2000).
Entries after “also recorded” stand apart in the source; their conditions may differ.

Experiments:
[1] = test system: PSA (prostate specific antigen) level; assay: Human clinical trial post-prostatectomy, PSA level; type: in vivo
Method: A separate clinical trial was also performed on male patients who had prostate cancer, and as a result had their prostates removed. The study was conducted in patients with detectable PSA (prostate specific antigen) levels that were rising following radical prostatectomy, indicating recurrence of prostate cancer.
96 patients were enrolled in the prostate study: a double-blind, placebo-controlled, multi-center trial involving exisulind administered to the drug-receiving patients at 500 mg/day. […] Although a rising level of PSA is not itself a disease condition, it is widely regarded in the medical community as a surrogate marker indicative of the presence of recurrence of prostate cancer in such men.
In addition to performing an analysis based on the differences in mean PSA levels between the exisulind and placebo groups as a whole, the interim analysis included subgroup analysis. The patients in the study were classified into high, intermediate and low risk groups in terms of their risk of developing metastatic disease. This classification was performed by a researcher at Johns Hopkins University, using the methodology published by them and other Johns Hopkins' researchers in the Journal of the American Medical Association (JAMA May 5, 1999, pp. 1591-97). To ascertain which study patients fell into which risk group, medical histories were supplied to the researcher who was blinded as to whether patients were on drug or placebo; they assigned study patients to the appropriate risk groups according to the above referenced published methodology.

[2] = test system: PKG in SW480 cells; assay: PKG expression by Western blot in SW480 cells; type: cell-based, human; settings: 48 hours
Method: This increase in PKG protein expression was further verified by relatively quantative western blot, as described below.
SW480 cells treated with exisulind as described previously are harvested from the microfuge tubes by rinsing once with ice-cold PBS. The cells are lysed by modified RIPA buffer for 15 minutes with agitation. The cell lysate is spun down in a cold room. The supernatants are transferred to fresh microcentrifuge tubes immediately after spinning. BioRad DC Protein Assay (Temecula, Calif.) is performed to determine the protein concentrations in samples. The samples are normalized for protein concentration, as described above.
50 μg of each sample is loaded to 10% SDS gel. SDS-PAGE is performed, and the proteins then are transferred to a nitrocellulose membrane. The blotted nitrocellulose membrane are blocked in freshly prepared TBST containing 5% nonfat dry milk for one hour at room temperature with constant agitation.
A goat-anti-PKG primary antibody is diluted to the recommended concentration/dilution in fresh TBST/5% nonfat dry milk. The nitrocellulose membrane is placed in the primary antibody solution and incubated one hour at room temperature with agitation. The nitrocellulose membrane is washed three times for ten minutes each with TBST. […]

For `CC1=C(CC(=O)O)c2cc(F)ccc2/C1=C\c1ccc(S(C)(=O)=O)cc1` [Exisulind, 5-fluoro-2-methyl-1-(p-methylsulfonylbenzylidene)-3-indenylacetic acid], the “PSA levels vs placebo” value ([1]; 500 mg/day) was “significantly reduced as compared with the PSA levels of the placebo-treated group; also recorded: statistically significant differences in mean PSA levels between exisulind and placebo patients in both high and intermediate risk groups”, the “Mean PSA level, High Risk” value ([1]; 500 mg/day, High Risk, placebo 4.98) was 2.91 and the “Mean PSA level, Intermediate Risk” value ([1]; 500 mg/day, Intermediate Risk, placebo 6.24) was 2.95. The “Mean PSA level, Overall” value ([1]; 500 mg/day, Overall, placebo 4.49) was 2.85, the “"p" value, mean PSA, High Risk” value ([1]; vs placebo, High Risk) was 0.0002 and the “"p" value, mean PSA, Intermediate Risk” value ([1]; vs placebo, Intermediate Risk) was 0.0053. For the same molecule, the “"p" value, mean PSA, Overall” value ([1]; vs placebo, Overall) was 0.0004 and the “PKG level by Western blot” value [2] was “increase of PKG”.
